The values that follow come from patent publication US10212936B2, “Molecules having pesticidal utility, and intermediates, compositions, and processes, related thereto” (priority 2014, dated 2019).

What all share (type): in vivo
Series [1] relates to Corn Earworm (Helicoverpa zea, HELIZE). The series is described as follows: Bioassay on Corn Earworm (CEW), 128-well diet tray assay. The conditions noted are these: 168 h, 50 μg/cm^2 on artificial diet, second instar larvae, five to seven days, 25° C., read-out: CEW % Control (or Mortality) rating. The procedure: (§1) Example A: Bioassays on Beet Armyworm (Spodoptera exigua, LAPHEG) (“BAW”), Corn Earworm (Helicoverpa zea, HELIZE) (“CEW”), and Cabbage Looper (Trichoplusia ni, TRIPNI) (“CL”)
(§2) Certain molecules disclosed in this document were tested against BAW, CEW, and CL using procedures described in the following examples. In the reporting of the results, the “BAW, CEW, & CL Rating Table” was used (See Table Section).
Bioassays on CEW were conducted using a 128-well diet tray assay. one to five second instar CEW larvae were placed in each well (3 mL) of the diet tray that had been previously filled with 1 mL of artificial diet to which 50 μg/cm^2 of the test molecule (dissolved in 50 μL of 90:10 acetone-water mixture) had been applied (to each of eight wells) and then allowed to dry. Trays were covered with a clear self-adhesive cover, and held at 25° C., 14:10 light-dark for five to seven days. Percent mortality was recorded for the larvae in each well; activity in the eight wells was then averaged. The results are indicated in the table entitled “Table ABC: Biological Results” (See Table Section).

The subject of series [2] is Yellow Fever Mosquito (Aedes aegypti, AEDSAE). Nature of the series: Bioassay on Yellow Fever Mosquito (YFM) larvae, 96-well plate. The conditions noted are these: about 1 day-old larvae, 4000 ppm DMSO master plate diluted, graded after 3 days. As for the experimental part: Example C: Bioassays on Yellow Fever Mosquito (Aedes aegypti, AEDSAE) (“YFM”)
Certain molecules disclosed in this document were tested against YFM using procedures described in the following paragraph. In the reporting of the results, the “YFM Rating Table” was used (See Table Section).
Master plates containing 400 μg of a molecule dissolved in 100 μL of dimethyl sulfoxide (DMSO) (equivalent to a 4000 ppm solution) are used. A master plate of assembled molecules contains 15 μL per well. To this plate, 135 μL of a 90:10 water:acetone mixture is added to each well. A robot (Biomek® NXP Laboratory Automation Workstation) is programmed to dispense 15 μL aspirations from the master plate into an empty 96-well shallow plate (“daughter” plate). There are 6 reps (“daughter” plates) created per master. The created daughter plates are then immediately infested with YFM larvae.
The day before plates are to be treated, mosquito eggs are placed in Millipore water containing liver powder to begin hatching (4 g. into 400 mL). After the daughter plates are created using the robot, they are infested with 220 μL of the liver powder/larval mosquito mixture (about 1 day-old larvae). After plates are infested with mosquito larvae, a non-evaporative lid is used to cover the plate to reduce drying. Plates are held at room temperature for 3 days prior to grading. After 3 days, each well is observed and scored based on mortality. The results are indicated in the table entitled “Table ABC: Biological Results” (See Table Section).

Series [3] relates to Cabbage Looper (Trichoplusia ni, TRIPNI). The series is described as follows: Bioassay on Cabbage Looper (CL), 128-well diet tray assay. The following applies: 168 h, 50 μg/cm^2 on artificial diet, second instar larvae, five to seven days, 25° C., read-out: CL % Control (or Mortality) rating. As for the experimental part:
as §1, §2
Bioassays on CL were conducted using a 128-well diet tray assay. one to five second instar CL larvae were placed in each well (3 mL) of the diet tray that had been previously filled with 1 mL of artificial diet to which 50 μg/cm^2 of the test molecule (dissolved in 50 μL of 90:10 acetone-water mixture) had been applied (to each of eight wells) and then allowed to dry. Trays were covered with a clear self-adhesive cover and held at 25° C., 14:10 light-dark for five to seven days. Percent mortality was recorded for the larvae in each well; activity in the eight wells was then averaged. The results are indicated in the table entitled “Table ABC: Biological Results” (See Table Section).

Series [4] has as its system Beet Armyworm (Spodoptera exigua, LAPHEG). The series is described as follows: Bioassay on Beet Armyworm (BAW), 128-well diet tray assay. The conditions noted are these: 168 h, 50 μg/cm^2 on artificial diet, second instar larvae, five to seven days, 25° C., read-out: BAW % Control (or Mortality) rating. The procedure:
as §1, §2
Bioassays on BAW were conducted using a 128-well diet tray assay. one to five second instar BAW larvae were placed in each well (3 mL) of the diet tray that had been previously filled with 1 mL of artificial diet to which 50 μg/cm^2 of the test molecule (dissolved in 50 μL of 90:10 acetone-water mixture) had been applied (to each of eight wells) and then allowed to dry. Trays were covered with a clear self-adhesive cover and held at 25° C., 14:10 light-dark for five to seven days. Percent mortality was recorded for the larvae in each well; activity in the eight wells was then averaged. The results are indicated in the table entitled “Table ABC: Biological Results” (See Table Section).

For the molecule `COc1ccc(-c2nonc2NC(=O)Nc2ccc(-c3ncn(-c4ccc(OC(F)(F)F)cc4)n3)cc2)cc1` [F39, 1-(4-(4-Methoxyphenyl)-1,2,5-oxadiazol-3-yl)-3-(4-(1-(4-(trifluoromethoxy)phenyl)-1H-1,2,4-triazol-3-yl)phenyl)urea], the mortality at 50 µg/cm2 in series [1] is 50 to 100%; in series [3], 50 to 100%; in series [4], 0 to 50%. The “YFM % Control (or Mortality) rating” value in series [2] was “D (No activity noticed in this bioassay)”.

With `Cc1cc(C)c(-c2nonc2NC(=O)Nc2ccc(-c3ncn(-c4ccc(OC(F)(F)F)cc4)n3)cc2)c(C)c1` [F40, 1-(4-Mesityl-1,2,5-oxadiazol-3-yl)-3-(4-(1-(4-(trifluoromethoxy)phenyl)-1H-1,2,4-triazol-3-yl)phenyl)urea], the mortality at 50 µg/cm2 in series [1], in series [3] and in series [4] was 50 to 100% in each case. Besides, the “YFM % Control (or Mortality) rating” value in series [2] was “B (More than 0-Less than 80)”.

On to `CC(C)c1ccccc1-n1ccnc1NC(=O)Nc1ccc(-c2ncn(-c3ccc(OC(F)(F)C(F)(F)F)cc3)n2)cc1` [F34, 1-(1-(2-isopropylphenyl)-1H-imidazol-2-yl)-3-(4-(1-(4-(perfluoroethoxy)phenyl)-1H-1,2,4-triazol-3-yl)phenyl)urea], for which the mortality at 50 µg/cm2 in series [1], in series [3] and in series [4] was 50 to 100% throughout. Further, the “YFM % Control (or Mortality) rating” value in series [2] is “D (No activity noticed in this bioassay)”.

For the molecule `Cc1ccc(-c2nonc2NC(=O)Nc2ccc(-c3ncn(-c4ccc(OC(F)(F)F)cc4)n3)cc2)c(C)c1` [F36, 1-(4-(2,4-Dimethylphenyl)-1,2,5-oxadiazol-3-yl)-3-(4-(1-(4-(trifluoromethoxy)phenyl)-1H-1,2,4-triazol-3-yl)phenyl)urea], the mortality at 50 µg/cm2 in series [1], in series [3] and in series [4] was 50 to 100% throughout. Besides, the “YFM % Control (or Mortality) rating” value in series [2] is reported as “A (80-100)”.

As for `O=C(Nc1ccc(-c2ncn(-c3ccc(OC(F)(F)F)cc3)n2)cc1)Nc1nonc1-c1ccccc1` [F37, 1-(4-Phenyl-1,2,5-oxadiazol-3-yl)-3-(4-(1-(4-(trifluoromethoxy)phenyl)-1H-1,2,4-triazol-3-yl)phenyl)urea], the mortality at 50 µg/cm2 in series [1], in series [3] and in series [4] was 50 to 100% each time. In addition, the “YFM % Control (or Mortality) rating” value in series [2] is “A (80-100)”.

On to `O=C(Nc1ccc(-c2ncn(-c3ccc(OC(F)(F)F)cc3)n2)cc1)Nc1nonc1-c1c(Cl)cccc1Cl` [F42, 1-(4-(2,6-Dichlorophenyl)-1,2,5-oxadiazol-3-yl)-3-(4-(1-(4-(trifluoromethoxy)phenyl)-1H-1,2,4-triazol-3-yl)phenyl)urea], for which the mortality at 50 µg/cm2 in series [1], in series [3] and in series [4] was 50 to 100% throughout. Moreover, the “YFM % Control (or Mortality) rating” value in series [2] was “D (No activity noticed in this bioassay)”.

As to `FC(F)(F)Oc1ccc(-n2cnc(-c3ccc(CCNC(=S)Nc4ccnn4-c4ccccc4)cc3)n2)cc1` [F65, 1-(1-phenyl-1H-pyrazol-5-yl)-3-(4-(1-(4-(trifluoromethoxy)phenyl)-1H-1,2,4-triazol-3-yl)phenethyl)thiourea], the mortality at 50 µg/cm2 in series [1], in series [3] and in series [4] was 50 to 100% throughout. In addition, the “YFM % Control (or Mortality) rating” value in series [2] is reported as “A (80-100)”.

Take `Cc1cc(Cl)ccc1-c1nonc1NC(=O)Nc1ccc(-c2ncn(-c3ccc(OC(F)(F)F)cc3)n2)cc1` [F43, 1-(4-(4-Chloro-2-methylphenyl)-1,2,5-oxadiazol-3-yl)-3-(4-(1-(4-(trifluoromethoxy)phenyl)-1H-1,2,4-triazol-3-yl)phenyl)urea]: the mortality at 50 µg/cm2 in series [1], in series [3] and in series [4] was 50 to 100% throughout. The “YFM % Control (or Mortality) rating” value in series [2] is reported as “A (80-100)”.

Consider `CCc1ccccc1-c1nonc1NC(=O)Nc1ccc(-c2ncn(-c3ccc(OC(F)(F)F)cc3)n2)cc1` [F44, 1-(4-(2-Ethylphenyl)-1,2,5-oxadiazol-3-yl)-3-(4-(1-(4-(trifluoromethoxy)phenyl)-1H-1,2,4-triazol-3-yl)phenyl)urea], for which the mortality at 50 µg/cm2 in series [1], in series [3] and in series [4] was 50 to 100% each time. The “YFM % Control (or Mortality) rating” value in series [2] is “D (No activity noticed in this bioassay)”.

Take `COc1ccccc1-c1nonc1NC(=O)Nc1ccc(-c2ncn(-c3ccc(OC(F)(F)F)cc3)n2)cc1` [F38, 1-(4-(2-Methoxyphenyl)-1,2,5-oxadiazol-3-yl)-3-(4-(1-(4-(trifluoromethoxy)phenyl)-1H-1,2,4-triazol-3-yl)phenyl)urea]: the mortality at 50 µg/cm2 in series [1], in series [3] and in series [4] was 50 to 100% each time. For the same molecule, the “YFM % Control (or Mortality) rating” value in series [2] is “A (80-100)”.

As to `O=C(Nc1ccc(-c2ncn(-c3ccc(OC(F)(F)F)cc3)n2)cc1)Nc1nonc1-c1ccccc1OC(F)(F)F` [F45, 1-(4-(2-(Trifluoromethoxy)phenyl)-1,2,5-oxadiazol-3-yl)-3-(4-(1-(4-(trifluoromethoxy)phenyl)-1H-1,2,4-triazol-3-yl)phenyl)urea], the mortality at 50 µg/cm2 in series [1], in series [3] and in series [4] was 50 to 100% in each case. Moreover, the “YFM % Control (or Mortality) rating” value in series [2] was “A (80-100)”.

On to `CC(C)c1cccc(-n2ccnc2NC(=O)Nc2ccc(-c3ncn(-c4ccc(OC(F)(F)F)cc4)n3)cc2)c1` [F25, 1-(1-(3-Isopropylphenyl)-1H-imidazol-2-yl)-3-(4-(1-(4-(trifluoromethoxy)phenyl)-1H-1,2,4-triazol-3-yl)phenyl)urea], for which the mortality at 50 µg/cm2 in series [1], in series [3] and in series [4] was 50 to 100% throughout.

For `Cc1cccc(-n2ccnc2NC(=O)Nc2ccc(-c3ncn(-c4ccc(OC(F)(F)F)cc4)n3)cc2)c1` [F24, 1-(1-(m-Tolyl)-1H-imidazol-2-yl)-3-(4-(1-(4-(trifluoromethoxy)phenyl)-1H-1,2,4-triazol-3-yl)phenyl)urea], the mortality at 50 µg/cm2 in series [1], in series [3] and in series [4] was 50 to 100% throughout.

With `COc1ccc(-n2ccnc2NC(=O)Nc2ccc(-c3ncn(-c4ccc(OC(F)(F)F)cc4)n3)cc2)cc1` [F30, 1-(1-(4-Methoxyphenyl)-1H-imidazol-2-yl)-3-(4-(1-(4-(trifluoromethoxy)phenyl)-1H-1,2,4-triazol-3-yl)phenyl)urea], the mortality at 50 µg/cm2 in series [1], in series [3] and in series [4] was 50 to 100% in each case.

In the case of `O=C(Nc1ccc(-c2ncn(-c3ccc(OC(F)(F)F)cc3)n2)cc1)Nc1nccn1-c1ccccc1` [F20, 1-(1-Phenyl-1H-imidazol-2-yl)-3-(4-(1-(4-(trifluoromethoxy)phenyl)-1H-1,2,4-triazol-3-yl)phenyl)urea], the mortality at 50 µg/cm2 in series [1], in series [3] and in series [4] was 50 to 100% each time.
